# Laboratory results published in patent US8106017B2, “Peptides for promoting hair growth and improving wrinkle and cosmetic compositions comprising the same” (Caregen Co., Ltd., priority 2005, dated 2012).
# Assays:
# BALB/MK karatinocytes = assay: [3H]-thymidine incorporation, measurement of biological activities; format: cell-based; details: FIG. 5; for biological activity compared with natural thymosin β-4: BALB/MK keratinocytes, thymidine incorporation
# Method: The biological activities of the purified acetyl-octapetide of Example 2 were evaluated using BALB/MK karatinocytes according to Falco et al method to measure [^3H]-thymidine incorporation (Falco, et al. (1988) Oncogene., 2, 573). BALB/MK karatinocytes were cultured in 250 ml-flasks containing EMEM (Eagle's minimal essential media, Gibco, U.S.A.) supplemented with […] (fetal bovine serum). BALB/MK karatinocytes cultured were treated with 0.25% trypsin solution to detach cells from the bottom of culture flasks and centrifuged to collect cell pellets. Cells were resuspended in EMEM not containing FBS, its aliquot, 2×10^4 cells/0.3 ml medium was added to each well of 24-well plates and cultured under 7% CO2 for 24 hr at 37° C. 2 ng/ml of the acetyl octapeptide prepared in Example 2 was serially diluted by two-fold using EMEM containing 0.2 (w/v) % bovine serum albumin and 0.3 ml of the diluted peptide was added to each well, followed by additional culturing under 7% CO2 for 6 hr at 37° C. Afterwards, 0.5 μCi of [^3H]-thymidine (Amersham, TRK 686, 68 Ci/mmol) was added to each well and incubated overnight. After removing supernatants, cells were washed once using PBS (phosphate buffered saline) and incubated with 0.1 ml of 0.25% trypsin solution for 5 min at 37° C. to detach cells from the bottom of plates. 0.5 ml of EMEM containing 10% FBS was added to each well and cells were adhered to glass fiber filters using a cell harvester (12 well cell harvester, Millipore, U.S.A.). The filters were washed once with 1 ml of distilled water and once with 1 ml of ethanol, and kept to stand for 30 min at 60° C. for drying. The dried filters were added along with 2 ml of scintillation cocktail to scintillation vials and allowed to stand for 30 min at room temperature, after which radioactivity incorporated into cells was determined using a scintillation counter (Beckman, U.S.A) as shown in FIG. 5.
# C3H/HeN mice = assay: Hair-growth activities in mice with hair removed; format: in vivo; details: Formulation Example 5 applied on back for 25 days, initial hair growth effects, hair length and number, FIG. 12
# Description: The hairs of the back portions of C3H/HeN mice were completely removed using a hair cutter and a hair loss-inducing substance. One day later, Formulation Example 5 (cosmetic liquid) was applied onto the back portions for 25 days and then hair growth was observed.
# HaCaT keratinocytes = assay: SRB colorimetric assay, growth of HaCaT keratinocytes; format: cell-based, human; details: 10 ng/ml or 1,000 ng/ml, 72 hr, serum-free medium; FIGS. 7 and 8
# Method: To analyze effects of peptides of this invention on proliferation of keratinocytes, SRB (Sulforhodamine B) colorimetric assay was carried out using HaCaT kerationcyte according to Rizzino et al method (Rizzino, et al. Cancer Res., 48:4266 (1988)). HaCaT ketatinocytes (The Korean Cell Line Bank) were cultured in 250 ml-flasks containing EMEM (Eagle's minimal essential media, Gibco, U.S.A.) supplemented with […] (fetal bovine serum). HaCaT ketatinocytes cultured were treated with 0.25% trypsin solution to detach cells from the bottom of culture flasks and centrifuged to collect cell pellets. Cells were resuspended in EMEM not containing FBS, its aliquot (4×10^3) cells was added to each well of 96-well plates and cultured under 7% CO2 for 24 hr at 37° C. After 24-hr culture, the medium was changed with a fresh medium not containing serum and cells were incubated with thymosin β-4 or the acetyl-octapeptide (10 ng/ml or 1,000 ng/ml) dissolved in 10% DMSO for 72 hr under the same conditions as described above. After removing supernatants, cells were washed once using PBS (phosphate buffered saline) and incubated with SRB solution (Sigma-Aldrich). Cells were washed with PBS and observed under a microscope to find cell viability. In addition, absorbance at 590 nm was measured to analyze cell proliferation (FIG. 7). […]
# procollagen = assay: Procollagen level in HaCaT cell line (Procollagen ELISA kit); format: cell-based, human; details: HaCaT keratinocytes, 1 μg/ml; FIG. 9
# Method: (§1) Furthermore, HaCaT cell line was treated with the acetyl-octapeptide of this invention (1 μg/ml) and the level of procollagen, one of indicators to show the improvement in skin wrinkle, was examined (FIG. 9). The level of procollagen was measured using Procollagen ELISA kit (Takara). For verifying effects on levels of hyaluronic acid, another indicator representing the improvement in skin wrinkle, HaCaT cell line was incubated with the acetyl-octapeptide of this invention (5 μmole) and the level of hyaluronic acid was measured using Hyaluronic acid ELISA kit (Echelon Biosciences Inc, USA) (FIG. 10).
# hyaluronic acid = assay: Hyaluronic acid level in HaCaT cell line (Hyaluronic acid ELISA kit); format: cell-based, human; details: HaCaT keratinocytes, 5 μmole; FIG. 10
# Method: as §1
substance,measurement,setting,value
Ac-Lys-Leu-Lys-Lys-Thr-Glu-Thr-Gln-OH (Ac-KLKKTETQ-OH) [acetyl octapeptide],[3H]-thymidine incorporation into keratinocytes,BALB/MK karatinocytes; 2 ng/ml serially diluted two-fold,promotes thymidine incorporation into kerationcytes in a dose-dependent fashion
same,biological activity compared with natural thymosin β-4,BALB/MK karatinocytes,high biological activities similar to intact Tβ-4F
same,biological activity compared with natural thymosin β-4,BALB/MK karatinocytes; listed as present peptide,biological activities almost identical to natural-occurring Tβ4
same,increase of hair growth compared with control,C3H/HeN mice,25-30%
same,cell viability / proliferation of HaCaT keratinocytes versus control,HaCaT keratinocytes,much higher cell viability than control
same,level of procollagen in cells,procollagen,increased in a dose-dependent manner
same,level of hyaluronic acid in cells,hyaluronic acid,increased in a dose-dependent manner
